Experimental data: article PMC7367369, “A small library of chalcones induce liver cancer cell death through Akt phosphorylation inhibition” (Scientific Reports, 2020)
pIC50: −log10 of the molar value. Like-named read-outs stand apart in the source and are kept apart here.

How the values were obtained:
SNU475 = test: NCI-60 sulforhodamine B (SRB) cytotoxicity assay, SNU475; assay type: cell-based, human; conditions: Homo sapiens, SNU-475; SRB, 72 h, 2.5–40 μM, triplicate; read-out: IC50 SNU475
Method: (§1) The bioactivities of the synthesized chalcones were assessed on human liver cancer cell lines and on DPSCs with NCI-SRB assay in vitro. DPSCs used to asses the bioactivity of chalcones on untransformed control cells with the potential of hepatic lineage. […] We also included 5-Fluorouracil which is used in clinics for gastrointestinal cancers and Sorafenib. All results were normalized to DMSO negative control measurements. The experiment was performed in triplicate.
(§2) Well differentiated human primary liver cancer cell lines Huh7, HepG2 and Hep3B, and poorly differentiated Mahlavu, FOCUS and SNU475 HCC cells were cultured in Dulbecco’s Modified Eagle’s Standard (DMEM) medium supplemented with 10% Fetal Bovine Serum (FBS), 100 units/mL penicillin and 100 µg/mL streptomycin (Gibco, Invitrogen, Carlsbad, CA, USA). 0.1 mM nonessential amino acids (NEAA) which are specific to HCC cell lines also added to culture media. Cells were cultured in a 5% CO2 incubator at 37^∘C
(§3) Primary liver cancer cells Huh7, HepG2, Hep3B, Mahlavu, FOCUS, Snu475 along with hepatic progenitor Dental pulp stem cells were seeded into 96-well plates (1,000–3,000 HCC cell/well and 10,000 cells DPSC/well ) for 24 h. The cells were then treated with increasing concentrations of the chalcones ( 2.5-40μM ). DMSO (AppliChem Biochemica, Darmstadt, Germany) was used as negative control. The growth has stopped at the end of 72 h by fixing cold with 10% (v/v) trichloroacetic acid (Merck, Schuchardt, Germany). Cells were then stained with 0.4% (m/v) of sulforhodamine (Sigma-Aldrich, St. Louis, USA) in 1% acetic acid solution. […] All experiments were done in triplicate.

Huh7 = test: Real-time cell electronic sensing (RT-CES) growth analysis, Huh7; assay type: cell-based; conditions: Homo sapiens, Huh-7
Method: The selected 3 compounds were further analyzed with real-time cell electronic sensing (RT-CES) system to assess the real-time growth behavior of the cells treated with the compounds. Huh7 and Mahlavu liver cancer cells were treated with the selected chalcones and monitored with RT-CES. Results of the compounds were normalized to data of negative control DMSO.
Figure 2 Real-time cell growth analysis. Human liver cancer cells Huh7 (left panel) and Mahlavu (right panel) were treated with the selected compounds. Cell index measurements were obtained by RT-CES software. DMSO was used as negative control. (A) The growth inhibition values of the compounds were obtained by the normalization with DMSO. Experiments were performed in triplicate. (B) IC50 values calculated from RT-CES experiment data. TEXT PRINTED IN THE PICTURE: (B) 1: Huh7 24h: 3.7; Huh7 72h: 5.2; Mahlavu 24h: 1.2; Mahlavu 72h: 2.3 | (B) 9: Huh7 24h: 16.1; Huh7 72h: 11.5; Mahlavu 24h: 4.9; Mahlavu 72h: 6.8 | (B) 11: Huh7 24h: 8.7; Huh7 72h: 8.8; Mahlavu 24h: 4.9; Mahlavu 72h: 6.8 DOUBTS OF THE COPYIST ABOUT THIS PICTURE: Panel B table: the picture prints no measure and no unit for the values
Huh7 and Mahlavu cells were inoculated into the e-plate (1000–2000 cells/well). The attachment, spreading, and proliferation of the cells were monitored every 30 minutes using the Xcelligence® Real-Time Cell Analysis system (ACEA Biosciences Inc.) in a cell culture incubator. […] When cells reach to an cell index (CI) impedance values about 1.5 usually in 24 hours cells were treated with the chalcones 1, 9 and 11. DMSO was used as a negative control. Each experiment was repeated three times. The CI value was noted every 10 minutes for the first 24 hours and then every 30 minutes upon chalcone treatments. The cell inhibition rate calculated as follows (%)=[1-(CItreatedcells/CIDMSO)]×100 .

[1] = system: pAkt (Ser473) in Mahlavu cells; test: Western blot, phosphorylated Akt levels; assay type: cell-based, human; conditions: IC50 concentrations (Fig. 2), 24 h
Method: Figure 4 Proteins targeted by the compounds. Human liver cancer cells (Mahlavu) were treated with the IC50 concentrations of the selected compounds or DMSO control for 24 h. […] (B–D) Quantification of the results using ImageJ software. (E) Schematic representation of the molecular mechanism of action of the compounds. Blocked signaling is crossed.
In order to investigate the significant bioactivity of the chalcones 1, 9 and 11 on human liver cancer cell line Mahlavu which has an hyperactive PI3K/Akt pathway due to PTEN-deficiency[13], we analyzed the effect of the chalcones on the active phosphorylated Akt levels in this cell line.
Poorly differentiated liver cancer cell line Mahlavu cells were cultured in 100 mm culture dish for 24 h. […] Anti-PARP antibody (Cell Signaling, 9532), pAkt (Ser473) antibody (Cell Signaling, 9271), Akt antibody (Cell Signaling, 9272), pNFkB-p65 (Ser468) antibody (Snat Cruz, sc101750), p21 antibody (Millipore, 05345), pRb (Ser807/811) antibody (Cell Signaling, 9308), Rb antibody (Santa Cruz, sc102), actin antibody (Sigma, A5441) and calnexin antibody (Sigma, C4731) were used as primary antibodies. Anti-rabbit (6154) and anti-mouse (0168) secondary antibodies were used. ImageJ tool ([42]) used for protein band intensity comparison. Original Full length blots are given as Supplementary Information.

FOCUS = test: NCI-60 sulforhodamine B (SRB) cytotoxicity assay, FOCUS; assay type: cell-based, human; conditions: Homo sapiens; SRB, 72 h, 2.5–40 μM, triplicate; read-out: IC50 FOCUS
Method: as §1, §2, §3

HepG2 = test: NCI-60 sulforhodamine B (SRB) cytotoxicity assay, HepG2; assay type: cell-based, human; conditions: Homo sapiens, HepG2; SRB, 72 h, 2.5–40 μM, triplicate; read-out: IC50 HepG2
Method: as §1, §2, §3

[2] = system: dental pulp stem cells (DPSC); test: NCI-60 sulforhodamine B (SRB) cytotoxicity assay, dental pulp stem cells; assay type: cell-based, human; conditions: Homo sapiens; SRB, 72 h, 2.5–40 μM, triplicate; untransformed control cells; read-out: IC50 DPSC
Method: as §1
Dental pulp stem cells (DPSCs) were isolated from anonymised unidentified healthy intact wisdom tooth. DPSCs were isolated within few hours upon wisdom teeth surgery from patients above 18 years old. All were informed about the procedures, and their consents were obtained. Teeth were broken carefully in order to reach the dental pulp area. […] Then, the cells were seeded onto flasks in 10ml DMEM-F12 media (Lonza) supplemented with 1% penicillin/streptomycin solution (Hyclone) and 15% FBS (Fetal Bovine Serum,Hyclone, Logan, UT, USA) and cultured in a 5% CO2 incubator at 37^∘C .
as §3

[3] = Huh7, 24h, read-out: IC50 values calculated from RT-CES experiment data, Huh7 24h
[4] = Huh7, 72h, read-out: IC50 values calculated from RT-CES experiment data, Huh7 72h

O=C(/C=C/c1ccc(Cl)cc1)c1ccccc1 [compound 11]
pIC50 (SNU475): 5.05 | pIC50 (Huh7; [3]): 5.06 | pIC50 (Huh7; [4]): 5.06 | levels of pAkt [1]: decrease in the levels of pAkt | pIC50 (FOCUS): 5.51 | pIC50 (HepG2): 5.19 | pIC50 [2]: 4.72

COc1ccc(C(=O)/C=C/c2cccc([N+](=O)[O-])c2)cc1 [compound 1]
pIC50 (SNU475): 5.52 | pIC50 (Huh7; [3]): 5.43 | pIC50 (Huh7; [4]): 5.28 | levels of pAkt [1]: decrease in the levels of pAkt | pIC50 (FOCUS): 5.31 | pIC50 (HepG2): 5.38 | pIC50 [2]: < 4.40

O=C(/C=C/c1ccccc1)c1ccccc1 [compound 9]
pIC50 (SNU475): 5.30 | pIC50 (Huh7; [3]): 4.79 | pIC50 (Huh7; [4]): 4.94 | levels of pAkt [1]: decrease in the levels of pAkt | pIC50 (FOCUS): 5.48 | pIC50 (HepG2): 5.14 | pIC50 [2]: 4.59
